Results published in patent publication US5032398A, “Selective modification of the catalytic subunit of pertussis toxin” (priority 1986, dated 1991).

Key:
[1] = test system: S1 -S5 subunits of the toxin; experiment: Labelled iodoacetate incorporation into toxin subunits, electrophoresis and x-ray film (Examples Two and Six); set-up: species or system Bordetella pertussis
Experimental: Pertussis toxin (2.5 μg) was incubated for thirty minutes at 37° C. in 50 μl of 50 mM Tris-HCl (pH 8.0) with or without combinations of the activators ATP, CHAPS and DTT. During this incubation, ATP was 1 mM, CHAPS was 1 weight percent, and DTT was 0.5 mM, when present. Following this incubation, 75 nmol (1.34 microCi of iodo[^14 C]acetate and 25 μl of water were then added, and the tubes incubated for an additional thirty minutes under nitrogen gas at 30° C. in the dark. This labelling reaction was terminated by adding 1 ml of ice-cold water containing 7.5 mM non-radioactive iodoacetate, 2.5 μg bovine serum albumin, and 150 μg sodium deoxycholate. After ten minutes on ice, 100 μl 72% triochloroacetic acid was added, and the precipitate recovered by centrifugation. Sodium dodecylsulfate and beta-mercaptoethanol were added, the sample heated to 95° C. for one minute, and then electrophoresed using 15% polyacrylamide gels. The fixed gels were then treated, dried and used to expose x-ray film at -70° C.
Pertussis toxin was incubated first at 37° C. for fifteen minutes in […] buffer A (100 mM Tris-HCl, pH 8.0 with 1 mM NaEDTA). EDTA was added to chelate divalent cations, which may promote oxidation of free --SH groups. During this incubation, DTT and ATP were present in concentrations of 1 mM each, and CHAPS was present in a concentration of 1 weight percent. Labelled iodoacetate was then added ([…], 12.5 mM), and the tube incubated on ice for twenty hours. The sample was then mixed with sodium dodecylsulfate and β-mercaptoethanol, heated at 95° C. for one minute, and electrophoresed. After electrophoresis, the gel was fixed, treated with Fluorohance (Research Products International), dried and used to expose x-ray film.

pertussis toxin = pertussis toxin (Bordetella pertussis, UniProt P04977); experiment: Inactivation of NADase activity by sulfhydryl reagents, 6 minutes or 18 hours at 0-4° (Example Eight); format: biochemical
Experimental: Pertussis toxin was incubated at 37° C. for fifteen minutes as described in Example Six, and then a second incubation was begun by adding 10 μl buffer A with or without 12.5 mM iodoacetate, mixing the contents of the tube and lowering the temperature to 30° C. After fifteen minutes, the tubes were shifted to an ice bath for ten minutes. A third incubation was then begun by adding 10 μl buffer A containing 200 mM DTT to those tubes containing iodoacetate to scavenge the iodoacetate. To those tubes not containing iodoacetate during the second incubation, a mixture of 200 mM DTT and 12.5 mM iodoacetate in buffer A, previously incubated for an hour on ice, was added. The third incubation was continued for one hour on ice.
The contents of each tube were then assayed for NADase activity by adding 40 μl of a reaction mix consisting of buffer A containing carbon-14 labelled NAD (final concentration in the 100 μl final volume was 25 μM), and 50 mM sodium chloride. Different reaction mixtures with various additions were used, so that in all tubes the final concentration of ATP was 1 mM and CHAPS was 1 weight percent. The assay was conducted at 37° C. for sixty minutes, and the released labelled nicotinimide was isolated and counted. The iced controls were formed by incubating pertussis toxin (1 μg) on ice in 10 mM sodium phosphate (pH 7) and 50 mM sodium chloride during the first three incubations. […] The first three incubations were done under a nitrogen atmosphere using degassed conditions, and the second and third incubations were done under subdued light.
The procedure followed in Example Seven was repeated for this study, except that N-ethylmaleimide, chloroacetamide or chloroacetate were substituted for iodoacetate. After the 30° C. incubation, the tubes were either incubated for six minutes or eighteen hours at 0°-4° C. before the 10 μl of 200 mM DTT (with or without quenched reagent) was added. Those tubes receiving the DTT after six minutes were incubated for nineteen hours at 0°-4° C. prior to the NADase assay. Those receiving the DTT after eighteen hours were incubated with DTT for one hour, as in Example Seven. The tubes were then assayed for NADase activity at the same time.

[2] = first incubation: ATP, CHAPS, 18 hours at 0-4°
[3] = first incubation: ATP, DTT, CHAPS, 6 minutes at 0-4°
[4] = first incubation: ATP, DTT, CHAPS, 18 hours at 0-4°
[5] = first incubation: CHAPS, 18 hours at 0-4°
[6] = first incubation: DTT, CHAPS, 18 hours at 0-4°
[7] = first incubation: none, 15 minutes at 30° C. followed by 18 hours at 0-4°

pertussis toxin, sequence (P04977 35-269 limits assumed): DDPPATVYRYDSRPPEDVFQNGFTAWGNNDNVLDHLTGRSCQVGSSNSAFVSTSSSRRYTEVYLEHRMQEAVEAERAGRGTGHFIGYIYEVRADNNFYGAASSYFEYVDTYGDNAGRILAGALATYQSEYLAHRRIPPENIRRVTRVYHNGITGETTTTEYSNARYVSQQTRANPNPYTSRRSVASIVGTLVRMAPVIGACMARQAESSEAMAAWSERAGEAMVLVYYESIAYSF
S1 -S5 subunits of the toxin, sequence (P04977 35-269 limits assumed): as above
S1 -S5 subunits of the toxin, sequence (P04978 28-226 limits assumed, further chain): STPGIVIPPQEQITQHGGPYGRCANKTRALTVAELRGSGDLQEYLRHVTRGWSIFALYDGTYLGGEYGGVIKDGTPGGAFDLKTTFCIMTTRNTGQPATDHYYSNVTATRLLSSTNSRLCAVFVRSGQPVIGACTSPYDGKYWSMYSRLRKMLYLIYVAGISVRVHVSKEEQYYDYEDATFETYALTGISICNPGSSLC
S1 -S5 subunits of the toxin, sequence (P04979 29-227 limits assumed, further chain): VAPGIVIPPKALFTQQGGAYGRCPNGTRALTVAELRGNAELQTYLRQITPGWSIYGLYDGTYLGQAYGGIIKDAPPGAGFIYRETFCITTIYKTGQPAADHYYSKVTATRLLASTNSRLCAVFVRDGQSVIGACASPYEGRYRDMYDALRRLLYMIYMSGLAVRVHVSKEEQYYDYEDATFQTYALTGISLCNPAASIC
S1 -S5 subunits of the toxin, sequence (P0A3R5 43-152 limits assumed, further chain): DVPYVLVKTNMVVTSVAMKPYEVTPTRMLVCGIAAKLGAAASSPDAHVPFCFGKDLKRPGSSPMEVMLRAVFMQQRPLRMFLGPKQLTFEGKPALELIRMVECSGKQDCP
S1 -S5 subunits of the toxin, sequence (P04981 35-133 limits assumed, further chain): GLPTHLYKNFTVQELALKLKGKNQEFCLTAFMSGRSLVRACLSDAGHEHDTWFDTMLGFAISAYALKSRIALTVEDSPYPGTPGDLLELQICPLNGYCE

Which results are given for O=C(O)CI [iodoacetate]?
Amount of label incorporated into the S1 subunit ([1]; DTT 1 mM, ATP 1 mM, CHAPS 1%, labelled iodoacetate on ice for twenty hours): equal to the sum of that incorporated into the S2 and S3 subunits; Carboxymethylation of toxin subunits, in words ([1]; after activation of the toxin by DTT, ATP and CHAPS): carboxymethylated the enzymatic S1 subunit; Extent of carboxymethylation of the toxin ([1]; pH lowered from 8 to 7): decreases somewhat; NADase activity (pertussis toxin; [2]): 110 pmol per μg per hour; percent of activity with no addition to second incubation (pertussis toxin; [2]): 85%; NADase activity (pertussis toxin; [3]): 17 pmol per μg per hour; percent of activity with no addition to second incubation (pertussis toxin; [3]): 17%; NADase activity (pertussis toxin; [4]): 3 pmol per μg per hour; percent of activity with no addition to second incubation (pertussis toxin; [4]): 3%; NADase activity (pertussis toxin; [5]): 171 pmol per μg per hour; percent of activity with no addition to second incubation (pertussis toxin; [5]): 92%; NADase activity (pertussis toxin; [6]): 151 pmol per μg per hour; percent of activity with no addition to second incubation (pertussis toxin; [6]): 79%; NADase activity (pertussis toxin; [7]): 59 pmol per μg per hour; percent of activity with no addition to second incubation (pertussis toxin; [7]): 116%
